# Assay results taken from paper PMC4965013, “Open Source Drug Discovery with the Malaria Box Compound Collection for Neglected Diseases and Beyond” (PLoS Pathogens, 2016).
# Experiments:
# P. falciparum = assay: EC50 listed in S2 Table Metabolomics (used to set the concentration tested); type: cell-based; details: Plasmodium falciparum; EC50 used for Factor_XEC50 in metabolomics; read-out: EC50_nM
# [1] = test system: P. falciparum 3D7 trophozoites; assay: Metabolomic fingerprint profiling LC-MS; type: cell-based, Plasmodium falciparum; design: UDP-D-glucose / ADP-D-glucose: unit not given here; details: for Acetyllysine / N-acetyl-L-ornithine / N-carbamoyl-L-aspartate / NADPH / dAMP / dCMP / dTDP / dTMP / dTTP / dihydroorotate / orotate / DLH / DLS/SDL/SID / PD / PEE / PVNF / 3-phosphoglycerate / ADP-D-glucose / ATP / CDP / D-sedoheptulose-1/7-phosphate / FAD / GMP / NAD+ / NADP+ / Octoluse Bisphosphate / Pyroglutamic acid / UDP-D-glucose / UDP-D-glucuronate / UDP-N-acetyl-glucosamine / UDP / UMP / UTP / a-ketoglutarate / citrate/isocitrate / cytidine / dATP / dGMP/AMP / fumarate / glucose-1/6-phosphate / glycerate / guanine / guanosine / hypoxanthine / indole / inosine / nicotinate / ornithine / phosphoenolpyruvate / pyruvate / ribose-phosphate / sarcosine/alanine / sn-glycerol-3-phosphate / succinate/methylmalonic acid / uridine / xanthosine: S2 Table Metabolomics; for Acetyllysine: metabolite Acetyllysine; for N-acetyl-L-ornithine: metabolite N-acetyl-L-ornithine; for N-carbamoyl-L-aspartate: metabolite N-carbamoyl-L-aspartate; for NADPH: metabolite NADPH; for dAMP: metabolite dAMP; for dCMP: metabolite dCMP; for dTDP: metabolite dTDP; for dTMP: metabolite dTMP; for dTTP: metabolite dTTP; for dihydroorotate: metabolite dihydroorotate; for orotate: metabolite orotate; for DLH: peptide DLH; for DLS/SDL/SID: peptide DLS/SDL/SID; for PD: peptide PD; for PEE: peptide PEE; for PVNF: peptide PVNF; for 3-phosphoglycerate: metabolite 3-phosphoglycerate; for ADP-D-glucose: metabolite ADP-D-glucose; for ATP: metabolite ATP; for CDP: metabolite CDP; for CDP / D-sedoheptulose-1/7-phosphate / GMP / Octoluse Bisphosphate / UDP / UMP / UTP / citrate/isocitrate / dGMP/AMP / fumarate / glucose-1/6-phosphate / glycerate / guanine / guanosine / inosine / pyruvate / sarcosine/alanine / succinate/methylmalonic acid / uridine / xanthosine: change in metabolite level after compound treatment; for D-sedoheptulose-1/7-phosphate: metabolite D-sedoheptulose-1/7-phosphate; for FAD: metabolite FAD; for GMP: metabolite GMP; for NAD+: metabolite NAD+; for NADP+: metabolite NADP+; for Octoluse Bisphosphate: metabolite Octoluse Bisphosphate; for Pyroglutamic acid: metabolite Pyroglutamic acid; for UDP-D-glucose: metabolite UDP-D-glucose; for UDP-D-glucuronate: metabolite UDP-D-glucuronate; for UDP-N-acetyl-glucosamine: metabolite UDP-N-acetyl-glucosamine; for UDP: metabolite UDP; for UMP: metabolite UMP; for UTP: metabolite UTP; for a-ketoglutarate: metabolite a-ketoglutarate; for citrate/isocitrate: metabolite citrate/isocitrate; for cytidine: metabolite cytidine; for dATP: metabolite dATP; for dGMP/AMP: metabolite dGMP/AMP; for fumarate: metabolite fumarate; for glucose-1/6-phosphate: metabolite glucose-1/6-phosphate; for glycerate: metabolite glycerate; for guanine: metabolite guanine; for guanosine: metabolite guanosine; for hypoxanthine: metabolite hypoxanthine; for indole: metabolite indole; for inosine: metabolite inosine; for 2_3-Diphosphoglyceric acid / 4-phosphopantothenate / 6-phospho-D-gluconate / FMN / IMP / Pyrophosphate / Sedoheptoluse bisphosphate / cyclic-AMP / glutathione disulfide / lactate / myo-inositol: metabolite level change after treatment; for nicotinate: metabolite nicotinate; for ornithine: metabolite ornithine; for phosphoenolpyruvate: metabolite phosphoenolpyruvate; for pyruvate: metabolite pyruvate; for ribose-phosphate: metabolite ribose-phosphate; for sarcosine/alanine: metabolite sarcosine/alanine; for sn-glycerol-3-phosphate: metabolite sn-glycerol-3-phosphate; for succinate/methylmalonic acid: metabolite succinate/methylmalonic acid; for uridine: metabolite uridine; for xanthosine: metabolite xanthosine
smiles,measurement,setting,value
Cc1ccc(N2C3c4ccccc4N(S(=O)(=O)c4ccc(C)cc4)C2c2ccccc2N3S(=O)(=O)c2ccc(C)cc2)cc1 [MMV007160],EC50,P. falciparum,24.8 nM
same,Acetyllysine,[1],0.3548
same,N-acetyl-L-ornithine,[1],0.3325
same,N-carbamoyl-L-aspartate,[1],1.35
same,NADPH,[1],0.1135
same,dAMP,[1],0.01944
same,dCMP,[1],0.09265
same,dTDP,[1],0.2488
same,dTMP,[1],0.1305
same,dTTP,[1],0.2593
same,dihydroorotate,[1],1.082
same,orotate,[1],0.8469
same,DLH,[1],0.1334
same,DLS/SDL/SID,[1],0.2278
same,PD,[1],-0.1641
same,PEE,[1],-0.1118
same,PVNF,[1],0.2167
same,3-phosphoglycerate,[1],0.1652
same,ADP-D-glucose,[1],-0.01319
same,ATP,[1],0.3343
same,CDP,[1],0.1565
same,D-sedoheptulose-1/7-phosphate,[1],0.1973
same,FAD,[1],-0.002001
same,GMP,[1],0.2649
same,NAD+,[1],0
same,NADP+,[1],0.07922
same,Octoluse Bisphosphate,[1],0.295
same,Pyroglutamic acid,[1],0.3777
same,UDP-D-glucose,[1],0.05012
same,UDP-D-glucuronate,[1],0.1524
same,UDP-N-acetyl-glucosamine,[1],-0.001304
same,UDP,[1],0.1082
same,UMP,[1],0.008735
same,UTP,[1],0.1487
same,a-ketoglutarate,[1],0.5892
same,citrate/isocitrate,[1],0.4078
same,cytidine,[1],0.08232
same,dATP,[1],0.1879
same,dGMP/AMP,[1],0.0905
same,fumarate,[1],0.3202
same,glucose-1/6-phosphate,[1],0.8192
same,glycerate,[1],0.7953
same,guanine,[1],0.3293
same,guanosine,[1],0.8873
same,hypoxanthine,[1],0.7164
same,indole,[1],0.6321
same,inosine,[1],0.395
same,2_3-Diphosphoglyceric acid,[1],0.1996
same,4-phosphopantothenate,[1],0.1099
same,6-phospho-D-gluconate,[1],0.1949
same,FMN,[1],0.06109
same,IMP,[1],-0.03231
same,Pyrophosphate,[1],0.1406
same,Sedoheptoluse bisphosphate,[1],0.1591
same,cyclic-AMP,[1],0.1479
same,glutathione disulfide,[1],0.15
same,lactate,[1],0.5915
same,myo-inositol,[1],0.754
same,nicotinate,[1],0.5248
same,ornithine,[1],0.05899
same,phosphoenolpyruvate,[1],0.1975
same,pyruvate,[1],-0.02541
same,ribose-phosphate,[1],-0.3937
same,sarcosine/alanine,[1],0.2516
same,sn-glycerol-3-phosphate,[1],-0.6224
same,succinate/methylmalonic acid,[1],0.03261
same,uridine,[1],0.5939
same,xanthosine,[1],0.5985
O=[N+]([O-])c1ccc(C=NNc2nc3ccccc3[nH]2)cc1 [MMV666607],EC50,P. falciparum,142 nM
same,Acetyllysine,[1],-1.035
same,N-acetyl-L-ornithine,[1],-1.151
same,N-carbamoyl-L-aspartate,[1],0.2298
same,NADPH,[1],4.216
same,dAMP,[1],0.3403
same,dCMP,[1],0.1583
same,dTDP,[1],0.005163
same,dTMP,[1],-0.3628
same,dTTP,[1],0.4469
same,dihydroorotate,[1],0.1326
same,orotate,[1],0.05442
same,DLH,[1],-0.8554
same,DLS/SDL/SID,[1],-0.615
same,PD,[1],-0.4537
same,PEE,[1],-0.9074
same,PVNF,[1],-1.15
same,3-phosphoglycerate,[1],0.2233
same,ADP-D-glucose,[1],0.2125
same,ATP,[1],0.06188
same,CDP,[1],-0.1249
same,D-sedoheptulose-1/7-phosphate,[1],-0.1388
same,FAD,[1],-0.1276
same,GMP,[1],-0.06014
same,NAD+,[1],-0.1512
same,NADP+,[1],0.1119
same,Octoluse Bisphosphate,[1],-0.09651
same,Pyroglutamic acid,[1],-0.1918
same,UDP-D-glucose,[1],-0.06053
same,UDP-D-glucuronate,[1],-0.006477
same,UDP-N-acetyl-glucosamine,[1],-0.08493
same,UDP,[1],-0.2957
same,UMP,[1],-0.07591
same,UTP,[1],0.3053
same,a-ketoglutarate,[1],-0.2127
same,citrate/isocitrate,[1],-0.1765
same,cytidine,[1],-0.4158
same,dATP,[1],0.1896
same,dGMP/AMP,[1],0.09335
same,fumarate,[1],0.008021
same,glucose-1/6-phosphate,[1],-0.3879
same,glycerate,[1],-0.4956
same,guanine,[1],-0.1214
same,guanosine,[1],0.1402
same,hypoxanthine,[1],-0.3554
same,indole,[1],-0.1954
same,inosine,[1],-0.3969
same,2_3-Diphosphoglyceric acid,[1],0.1914
same,4-phosphopantothenate,[1],0.07423
same,6-phospho-D-gluconate,[1],0.02335
same,FMN,[1],-0.06375
same,IMP,[1],0.01329
same,Pyrophosphate,[1],0.2379
same,Sedoheptoluse bisphosphate,[1],0.02366
same,cyclic-AMP,[1],0.0305
same,glutathione disulfide,[1],0.01063
same,lactate,[1],-0.3072
same,myo-inositol,[1],-0.4133
same,nicotinate,[1],0.09712
same,ornithine,[1],-0.3198
same,phosphoenolpyruvate,[1],0.2853
same,pyruvate,[1],-0.3236
same,ribose-phosphate,[1],0.1666
same,sarcosine/alanine,[1],-0.06565
same,sn-glycerol-3-phosphate,[1],-0.0116
same,succinate/methylmalonic acid,[1],0.01013
same,uridine,[1],-0.4646
same,xanthosine,[1],0.06506
COc1ccc(-c2cc3c(SCC(=O)Nc4cc(C(F)(F)F)ccc4Cl)nccn3n2)cc1 [MMV396679],EC50,P. falciparum,89.9 nM
same,Acetyllysine,[1],-0.1115
same,N-acetyl-L-ornithine,[1],-0.02651
same,N-carbamoyl-L-aspartate,[1],3.992
same,NADPH,[1],0.255
same,dAMP,[1],0.01076
same,dCMP,[1],-0.01731
same,dTDP,[1],-0.9721
same,dTMP,[1],-0.9985
same,dTTP,[1],-1.02
same,dihydroorotate,[1],4.797
same,orotate,[1],0.864
same,DLH,[1],-0.2125
same,DLS/SDL/SID,[1],-0.04913
same,PD,[1],-0.04215
same,PEE,[1],-0.3501
same,PVNF,[1],-0.2936
same,3-phosphoglycerate,[1],-0.0577
same,ADP-D-glucose,[1],-0.06603
same,ATP,[1],0.1822
same,CDP,[1],-0.644
same,D-sedoheptulose-1/7-phosphate,[1],0.2024
same,FAD,[1],0.03763
same,GMP,[1],0.3849
same,NAD+,[1],-0.01439
same,NADP+,[1],-0.06317
same,Octoluse Bisphosphate,[1],-0.02018
same,Pyroglutamic acid,[1],0.2933
same,UDP-D-glucose,[1],-0.1121
same,UDP-D-glucuronate,[1],-0.02141
same,UDP-N-acetyl-glucosamine,[1],-0.3213
same,UDP,[1],-1.37
same,UMP,[1],-0.7971
same,UTP,[1],-1.261
same,a-ketoglutarate,[1],0.1314
same,citrate/isocitrate,[1],0.05797
same,cytidine,[1],0.1643
same,dATP,[1],0.3792
same,dGMP/AMP,[1],-0.06069
same,fumarate,[1],-0.2305
same,glucose-1/6-phosphate,[1],0.5016
same,glycerate,[1],0.4143
same,guanine,[1],0.4991
same,guanosine,[1],0.9003
same,hypoxanthine,[1],0.3227
same,indole,[1],0.2561
same,inosine,[1],0.1928
same,2_3-Diphosphoglyceric acid,[1],0.1312
same,4-phosphopantothenate,[1],-0.2367
same,6-phospho-D-gluconate,[1],0.186
same,FMN,[1],-0.2039
same,IMP,[1],-0.06535
same,Pyrophosphate,[1],0.04157
same,Sedoheptoluse bisphosphate,[1],-0.03524
same,cyclic-AMP,[1],-0.06553
same,glutathione disulfide,[1],0.06998
same,lactate,[1],0.2306
same,myo-inositol,[1],0.2632
same,nicotinate,[1],0.2615
same,ornithine,[1],0.183
same,phosphoenolpyruvate,[1],-0.02867
same,pyruvate,[1],-0.158
same,ribose-phosphate,[1],-0.4444
same,sarcosine/alanine,[1],0.1483
same,sn-glycerol-3-phosphate,[1],-0.1937
same,succinate/methylmalonic acid,[1],-0.8703
same,uridine,[1],-0.4231
same,xanthosine,[1],0.3074
